Assay results taken from patent US20230279233A1, “ATROROSINS AS FOOD COLORS” (Chromologics ApS, priority 2020, published 2023).
Several values for one entry are separate records, joined by “and”; a condition that tells them apart may be missing. Identical values can stand only once. Like-named read-outs stand apart in the source and are kept apart here. Blank lines part the entries; values can stand above or below the compound they belong to.

Key:
[1] = Temperature stability at 60° C. and 80° C. in McIlvaine buffer pH 5, absorption maxima
Description: Buffer and atrorosin was mixed for 5 minutes before the solutions were subjected heating in an incubator at 60° C. and 80° C. to colorimetric analysis using spectrophotometer. The absorption maxima at 425 nm and 490 nm were determined in a microtiter plate with a 0.45 cm cell length with buffer as blank. In comparison to the data in Table 3, the absorption spectrum of betanin is determined as above. […] In comparison to Table 5, the absorption spectrum of betanin is determined as above.

[2] = background, literature; cited from earlier work
[3] = pH stability in McIlvaine buffer pH 2.2-7.2, absorption maxima by spectrophotometer; type: physicochemical
Description: In comparison to the pH data for Atrorosin-E of Table 1, the absorption spectrum of carminic acid is determined as above. Its absorption maxima are 495 nm, 525 nm, 565 nm. The pH stability data for carminic acid is shown below in Table 2: […]

TA 98 = assay: mini-Ames (AMES MPF) genotoxicity; type: cell-based
Description: Resulting powder from example 2 was sent to Cyprotox to asses for genotoxicity in a mini-Ames experiment. 43.2 mg of atrorosin was sent to Cyprotox. Mini-Ames test were conducted under the guidelines of OECD.
In comparison to the atrorosin tested above, similar 46.4 mg of carminic acid was also sent to Cyprotox to assess for genotoxicity.

[4] = Pharmacokinetic profile in rats, IV and PO; type: in vivo; conditions: rat, IV 1 mg/kg; for Cmax: read-out: C0/Cmax
Description: Resulting powder from example 2 was sent to Evotec to asses for the pharmacokinetic profile of atrorosin. 6 rats were used, 3 rats for IV injection of atrorosin and 3 rats for PO. The rats were injected or given through mouth gauge 2 mg/kg, and blood samples were taken at regular intervals.
In comparison to example 10, similar carminic acid was also sent to Evotec to assess the pharmacokinetic profile.

[5] = pH stability in McIlvaine buffer pH 2.2-7.2, absorption maxima by spectrophotometer; type: physicochemical; remark: listed apart in the source
[6] = Pharmacokinetic profile in rats, IV and PO; type: in vivo; conditions: rat, IV 1 mg/kg

heat stability (in words) ([1]; 60° C. over 24 hours): degrades significantly
Absorption at 530 nm ([1]; 60° C., 1 H): 0.26
Absorption at 530 nm ([1]; 60° C., 2 H): 0.2
Absorption at 530 nm ([1]; 60° C., 3 H): 0.17
Absorption at 530 nm ([1]; 60° C., 24 H): 0.05
Absorption at 530 nm ([1]; 60° C., T0: Start): 0.29
heat stability (in words) ([1]; 80° C. over 3 hours): degrades significantly
Absorption at 530 nm ([1]; 80° C., 1 H): 0.07
Absorption at 530 nm ([1]; 80° C., 2 H): 0.05
Absorption at 530 nm ([1]; 80° C., 3 H): 0.03
Absorption at 530 nm ([1]; 80° C., 15 min): 0.19
Absorption at 530 nm ([1]; 80° C., T0: Start): 0.28
Compound: O=C(O)C1=C/C(=C/C=[N+]2/c3cc(O)c(OC4OC(CO)[C@@H](O)C(O)C4O)cc3CC2C(=O)[O-])CC(C(=O)O)N1 (stereo in doubt) [betanin, reference compound]
temperature stability (in words) [2]: lack of stability over 40 °C

Compound: Cc1c(C(=O)O)c(O)cc2c1C(=O)c1c(O)c([C@@H]3O[C@H](CO)[C@@H](O)[C@H](O)[C@H]3O)c(O)c(O)c1C2=O [carminic acid, reference compound]
Absorption at 495 nm ([3]; pH 2.2): 0.859
Absorption at 525 nm ([3]; pH 2.2): 0.88
Absorption at 495 nm ([3]; pH 3.5): 1.289
Absorption at 525 nm ([3]; pH 3.5): 1.404
Absorption at 495 nm ([3]; pH 5): 1.561
Absorption at 525 nm ([3]; pH 7.2): 2.171
Absorption at 565 nm ([3]; pH 7.2): 2.23
Fold increase (over baseline) (TA 98; TA 98 +S9, 62.5 μg/ml): 0.42
mean # pos. Wells (TA 98; TA 98 +S9, 62.5 μg/ml): 1.00
Fold increase (over baseline) (TA 98; TA 98 +S9, 125 μg/ml): 0.28
mean # pos. Wells (TA 98; TA 98 +S9, 125 μg/ml): 0.67
Fold increase (over baseline) (TA 98; TA 98 +S9, 250 μg/ml): 0.14
mean # pos. Wells (TA 98; TA 98 +S9, 250 μg/ml): 0.33
Fold increase (over baseline) (TA 98; TA 98 +S9, 500 μg/ml): 0.00
mean # pos. Wells (TA 98; TA 98 +S9, 500 μg/ml): 0.00
Fold increase (over baseline) (TA 98; TA 98 +S9, 1000 μg/ml): 0.00
mean # pos. Wells (TA 98; TA 98 +S9, 1000 μg/ml): 0.00
Fold increase (over baseline) (TA 98; TA 98 +S9, 2000 μg/ml): 0.14
mean # pos. Wells (TA 98; TA 98 +S9, 2000 μg/ml): 0.33
Fold increase (over baseline) (TA 98; TA 98 −S9, 62.5 μg/ml): 0.25
mean # pos. Wells (TA 98; TA 98 −S9, 62.5 μg/ml): 0.33
Fold increase (over baseline) (TA 98; TA 98 −S9, 125 μg/ml): 0.51
mean # pos. Wells (TA 98; TA 98 −S9, 125 μg/ml): 0.67
Fold increase (over baseline) (TA 98; TA 98 −S9, 250 μg/ml): 0.25
mean # pos. Wells (TA 98; TA 98 −S9, 250 μg/ml): 0.33
Fold increase (over baseline) (TA 98; TA 98 −S9, 500 μg/ml): 0.25
mean # pos. Wells (TA 98; TA 98 −S9, 500 μg/ml): 0.33
Fold increase (over baseline) (TA 98; TA 98 −S9, 1000 μg/ml): 0.00
mean # pos. Wells (TA 98; TA 98 −S9, 1000 μg/ml): 0.00
Fold increase (over baseline) (TA 98; TA 98 −S9, 2000 μg/ml): 0.00
mean # pos. Wells (TA 98; TA 98 −S9, 2000 μg/ml): 0.00
genotoxic effects (in words) (TA 98; mini-Ames study): do not exert any genotoxic effects
C0/Cmax ([4]; Mean): 8213 ng/mL
Clast ([4]; Mean): 13.4 ng/mL
MRT ([4]; Mean): 3.5 h
Vdss ([4]; Mean): 0.3 L/kg
t½ ([4]; Mean): 3.5 ± 0.2 h
Cmax ([4]; Mean): 16.7 µM
AUCinf ([4]; individual rats 1-3, 1 mg/kg): 11497 ng · hr/mL and 12597 ng · hr/mL and 13408 ng · hr/mL and 23350 nM · hr and 25583 nM · hr and 27230 nM · hr
C0/Cmax ([4]; individual rats 1-3, 1 mg/kg): 7095 ng/mL and 6542 ng/mL and 11003 ng/mL
CL/CL_F ([4]; individual rats 1-3, 1 mg/kg): 1.4 mL/min/kg and 1.3 mL/min/kg and 1.2 mL/min/kg
Clast ([4]; individual rats 1-3, 1 mg/kg): 12.3 ng/mL and 12.7 ng/mL and 15.3 ng/mL
MRT ([4]; individual rats 1-3, 1 mg/kg): 3.2 h and 3.3 h and 3.9 h
t½ ([4]; individual rats 1-3, 1 mg/kg): 3.7 h and 3.4 h (2×)
Cmax ([4]; individual rats 1-3, 1 mg/kg): 14.4 µM and 13.3 µM and 22.3 µM
Absorption at 565 nm ([5]; pH 2.2): 0.771
Absorption at 565 nm ([5]; pH 3.5): 1.365
Absorption at 525 nm ([5]; pH 5): 1.834
Absorption at 565 nm ([5]; pH 5): 1.852
Absorption at 495 nm ([5]; pH 7.2): 1.625
CL/CL_F (plasma clearance) ([6]; Mean): 1.3 ± 0.1 mL/min/kg
Tlast ([6]; individual rats 1-3): 24 h
Vdss ([6]; individual rats 1-3): 0.3 L/kg
AUC0-t ([6]; individual rats 1-3, 1 mg/kg): 11431 ng · hr/mL and 12535 ng · hr/mL and 13332 ng · hr/mL and 23216 nM · hr and 25457 nM · hr and 27076 nM · hr
temperature stability (in words) [2]: good temperature stability
